Experimental data reported in publication PMC10599993, “The PTPN2/PTPN1 inhibitor ABBV-CLS-484 unleashes potent anti-tumour immunity” (Nature, 2023).

Key:
Assay in all cases: biochemical
Set-up in all cases: Kinase selectivity panel, IC50 of AC484 (Supplementary Table 1)
ALK = ALK (Homo sapiens, UniProt Q9UM73)
Akt1 = Akt1 (Homo sapiens, UniProt P31749)
BMX = BMX (Homo sapiens, UniProt P51813)
CAMK1D = CAMK1D (Homo sapiens, UniProt Q8IU85)
CDK9/Cyclin K = CDK9/Cyclin K (Homo sapiens, UniProt P50750)
CSF1R = CSF1R (Homo sapiens, UniProt P07333)
Ck1alpha1 = target: T1, Ck1alpha1 (Homo sapiens, UniProt P48729)
T1 construct: gene CSNK1A1

ErbB4 = ErbB4 (Homo sapiens, UniProt Q15303)
FAK = target: T2, FAK (Homo sapiens, UniProt Q05397)
T2 construct: gene PTK2

IGF1R = IGF1R (Homo sapiens, UniProt P08069)
IRAK4 = IRAK4 (Homo sapiens, UniProt Q9NWZ3)
JAK2 = JAK2 (Homo sapiens, UniProt O60674)
LYN-B = target: T3, LYN-B (Homo sapiens, UniProt P07948)
T3 construct: isoform B

MAP2K3 = MAP2K3 (Homo sapiens, UniProt P46734)
MERTK = MERTK (Homo sapiens, UniProt Q12866)
MINK1 = MINK1 (Homo sapiens, UniProt Q8N4C8)
PDGFRB = PDGFRB (Homo sapiens, UniProt P09619)
PKC alpha-UBI = target: T4, PKC alpha-UBI (Homo sapiens, UniProt P17252)
T4 construct: gene PRKCA

PKCbeta2 = target: T5, PKCbeta2 (Homo sapiens, UniProt P05771)
T5 construct: gene PRKCB; isoform beta2

RET = RET (Homo sapiens, UniProt P07949)
Rock1 = Rock1 (Homo sapiens, UniProt Q13464)
SGK1 = SGK1 (Homo sapiens, UniProt O00141)
TAK1-TAB1 = target: T6, TAK1-TAB1 (Homo sapiens, UniProt O43318)
T6 construct: gene MAP3K7

TBK1 = TBK1 (Homo sapiens, UniProt Q9UHD2)
TXK = TXK (Homo sapiens, UniProt P42681)
TrkC = target: T7, TrkC (Homo sapiens, UniProt Q16288)
T7 construct: gene NTRK3

Zap70 = Zap70 (Homo sapiens, UniProt P43403)
_PKCtheta = target: T8, _PKCtheta (Homo sapiens, UniProt Q04759)
T8 construct: gene PRKCQ

Measured: IC50

Sequence of PDGFRB (P09619 whole entry): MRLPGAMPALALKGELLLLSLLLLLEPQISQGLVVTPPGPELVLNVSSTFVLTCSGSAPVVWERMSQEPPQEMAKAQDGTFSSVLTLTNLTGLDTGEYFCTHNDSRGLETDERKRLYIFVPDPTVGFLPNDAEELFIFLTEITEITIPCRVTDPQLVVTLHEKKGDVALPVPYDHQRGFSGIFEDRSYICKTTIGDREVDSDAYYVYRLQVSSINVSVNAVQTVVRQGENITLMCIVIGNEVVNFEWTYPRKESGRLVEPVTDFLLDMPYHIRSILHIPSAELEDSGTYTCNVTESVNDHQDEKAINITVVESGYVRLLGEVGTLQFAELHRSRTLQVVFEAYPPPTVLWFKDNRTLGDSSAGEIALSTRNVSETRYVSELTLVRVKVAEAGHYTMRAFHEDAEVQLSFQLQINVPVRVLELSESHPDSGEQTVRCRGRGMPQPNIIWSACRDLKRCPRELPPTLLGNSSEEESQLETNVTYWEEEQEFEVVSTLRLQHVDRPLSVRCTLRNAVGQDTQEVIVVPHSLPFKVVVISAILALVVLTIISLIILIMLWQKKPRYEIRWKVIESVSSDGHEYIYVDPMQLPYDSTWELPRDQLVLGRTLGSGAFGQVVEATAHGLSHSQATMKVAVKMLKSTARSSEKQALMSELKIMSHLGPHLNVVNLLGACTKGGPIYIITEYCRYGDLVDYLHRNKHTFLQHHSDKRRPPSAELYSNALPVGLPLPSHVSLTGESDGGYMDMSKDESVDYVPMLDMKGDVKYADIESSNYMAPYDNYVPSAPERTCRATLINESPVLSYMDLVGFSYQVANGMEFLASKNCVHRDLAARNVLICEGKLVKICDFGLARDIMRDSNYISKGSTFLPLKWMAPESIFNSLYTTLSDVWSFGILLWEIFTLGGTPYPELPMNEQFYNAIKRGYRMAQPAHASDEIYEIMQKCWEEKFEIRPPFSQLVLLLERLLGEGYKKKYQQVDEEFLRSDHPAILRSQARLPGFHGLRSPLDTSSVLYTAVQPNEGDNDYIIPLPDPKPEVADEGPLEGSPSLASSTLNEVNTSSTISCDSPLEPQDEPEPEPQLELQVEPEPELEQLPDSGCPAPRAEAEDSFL
Sequence of Rock1 (Q13464 whole entry): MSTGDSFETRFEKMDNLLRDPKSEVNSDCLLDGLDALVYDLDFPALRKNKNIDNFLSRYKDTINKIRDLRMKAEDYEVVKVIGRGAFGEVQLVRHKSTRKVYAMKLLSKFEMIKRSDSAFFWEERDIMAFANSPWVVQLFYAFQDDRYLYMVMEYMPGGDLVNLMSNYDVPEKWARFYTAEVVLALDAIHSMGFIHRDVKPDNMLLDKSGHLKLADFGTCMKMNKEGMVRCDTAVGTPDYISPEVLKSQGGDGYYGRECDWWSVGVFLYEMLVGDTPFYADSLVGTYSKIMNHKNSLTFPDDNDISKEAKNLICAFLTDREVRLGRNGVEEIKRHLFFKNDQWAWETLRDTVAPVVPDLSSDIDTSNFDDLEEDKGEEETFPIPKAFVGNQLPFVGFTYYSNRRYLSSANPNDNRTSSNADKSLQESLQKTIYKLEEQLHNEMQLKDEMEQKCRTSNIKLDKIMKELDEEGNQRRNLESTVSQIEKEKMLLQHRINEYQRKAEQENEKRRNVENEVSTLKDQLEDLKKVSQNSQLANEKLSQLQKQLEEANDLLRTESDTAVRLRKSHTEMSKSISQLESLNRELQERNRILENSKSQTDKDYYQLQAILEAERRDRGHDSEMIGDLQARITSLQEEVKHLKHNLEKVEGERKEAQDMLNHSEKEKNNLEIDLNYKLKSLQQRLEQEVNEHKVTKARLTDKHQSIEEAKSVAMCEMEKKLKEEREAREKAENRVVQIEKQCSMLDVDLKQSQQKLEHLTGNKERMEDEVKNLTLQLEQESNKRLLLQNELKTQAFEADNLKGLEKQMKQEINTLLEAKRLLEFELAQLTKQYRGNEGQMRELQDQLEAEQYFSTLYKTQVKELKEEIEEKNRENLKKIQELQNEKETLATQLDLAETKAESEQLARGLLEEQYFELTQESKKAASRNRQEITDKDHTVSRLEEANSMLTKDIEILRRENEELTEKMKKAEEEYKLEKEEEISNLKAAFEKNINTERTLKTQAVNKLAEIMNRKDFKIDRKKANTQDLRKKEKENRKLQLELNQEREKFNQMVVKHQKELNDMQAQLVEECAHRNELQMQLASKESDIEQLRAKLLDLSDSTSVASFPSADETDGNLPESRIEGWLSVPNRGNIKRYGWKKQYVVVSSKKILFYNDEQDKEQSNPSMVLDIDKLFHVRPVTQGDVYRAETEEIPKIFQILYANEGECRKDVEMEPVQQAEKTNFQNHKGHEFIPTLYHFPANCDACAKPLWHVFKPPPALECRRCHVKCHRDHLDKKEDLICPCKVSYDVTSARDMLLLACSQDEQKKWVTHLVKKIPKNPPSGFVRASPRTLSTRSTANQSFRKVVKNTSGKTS
T1 sequence (P48729 whole entry): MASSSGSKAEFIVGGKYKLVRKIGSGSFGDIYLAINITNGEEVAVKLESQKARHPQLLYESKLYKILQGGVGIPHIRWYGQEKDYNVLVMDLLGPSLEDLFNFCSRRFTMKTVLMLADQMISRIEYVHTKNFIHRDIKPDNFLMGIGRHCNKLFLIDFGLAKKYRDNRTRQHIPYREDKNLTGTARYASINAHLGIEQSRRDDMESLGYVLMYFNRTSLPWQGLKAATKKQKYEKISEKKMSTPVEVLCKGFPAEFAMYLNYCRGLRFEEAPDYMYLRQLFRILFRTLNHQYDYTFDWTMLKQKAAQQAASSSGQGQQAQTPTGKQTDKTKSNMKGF
Sequence of TXK (P42681 whole entry): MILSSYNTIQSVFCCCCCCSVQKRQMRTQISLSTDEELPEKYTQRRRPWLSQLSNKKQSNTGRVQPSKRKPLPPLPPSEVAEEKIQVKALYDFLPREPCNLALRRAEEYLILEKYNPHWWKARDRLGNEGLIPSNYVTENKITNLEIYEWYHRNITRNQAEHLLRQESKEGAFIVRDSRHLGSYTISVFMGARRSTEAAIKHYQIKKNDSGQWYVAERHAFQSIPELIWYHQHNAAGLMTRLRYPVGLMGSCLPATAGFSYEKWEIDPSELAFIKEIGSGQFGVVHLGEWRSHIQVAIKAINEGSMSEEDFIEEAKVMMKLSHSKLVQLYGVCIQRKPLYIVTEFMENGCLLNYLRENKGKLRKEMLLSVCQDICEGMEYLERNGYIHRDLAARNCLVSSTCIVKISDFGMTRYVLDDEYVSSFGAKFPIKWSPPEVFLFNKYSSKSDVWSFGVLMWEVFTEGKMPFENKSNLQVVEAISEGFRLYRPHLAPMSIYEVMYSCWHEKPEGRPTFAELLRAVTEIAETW
Sequence of MERTK (Q12866 whole entry): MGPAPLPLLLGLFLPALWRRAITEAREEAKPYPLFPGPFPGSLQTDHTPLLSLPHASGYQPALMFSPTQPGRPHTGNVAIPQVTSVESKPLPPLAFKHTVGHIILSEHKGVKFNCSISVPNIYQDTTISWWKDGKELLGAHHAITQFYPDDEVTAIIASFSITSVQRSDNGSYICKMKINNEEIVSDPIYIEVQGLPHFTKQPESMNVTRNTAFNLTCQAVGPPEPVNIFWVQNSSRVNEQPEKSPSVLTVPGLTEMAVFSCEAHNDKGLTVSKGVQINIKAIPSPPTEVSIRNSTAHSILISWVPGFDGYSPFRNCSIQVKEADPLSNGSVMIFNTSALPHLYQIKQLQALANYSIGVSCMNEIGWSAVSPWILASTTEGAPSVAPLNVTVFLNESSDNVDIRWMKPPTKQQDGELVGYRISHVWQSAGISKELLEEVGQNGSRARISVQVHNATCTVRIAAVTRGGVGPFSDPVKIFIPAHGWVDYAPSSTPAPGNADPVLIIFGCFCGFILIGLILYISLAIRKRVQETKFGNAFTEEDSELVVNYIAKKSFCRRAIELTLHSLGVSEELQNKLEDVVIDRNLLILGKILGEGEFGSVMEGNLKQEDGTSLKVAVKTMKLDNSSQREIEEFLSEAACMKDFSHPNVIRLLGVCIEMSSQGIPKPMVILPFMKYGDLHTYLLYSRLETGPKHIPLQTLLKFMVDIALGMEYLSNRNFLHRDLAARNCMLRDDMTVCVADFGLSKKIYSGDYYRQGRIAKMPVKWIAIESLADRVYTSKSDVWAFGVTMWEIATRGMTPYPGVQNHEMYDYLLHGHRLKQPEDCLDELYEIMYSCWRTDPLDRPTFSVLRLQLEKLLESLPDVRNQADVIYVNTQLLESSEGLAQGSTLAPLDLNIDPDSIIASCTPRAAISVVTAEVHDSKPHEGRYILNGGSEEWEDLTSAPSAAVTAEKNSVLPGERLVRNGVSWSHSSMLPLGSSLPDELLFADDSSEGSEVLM
T8 sequence (Q04759 whole entry): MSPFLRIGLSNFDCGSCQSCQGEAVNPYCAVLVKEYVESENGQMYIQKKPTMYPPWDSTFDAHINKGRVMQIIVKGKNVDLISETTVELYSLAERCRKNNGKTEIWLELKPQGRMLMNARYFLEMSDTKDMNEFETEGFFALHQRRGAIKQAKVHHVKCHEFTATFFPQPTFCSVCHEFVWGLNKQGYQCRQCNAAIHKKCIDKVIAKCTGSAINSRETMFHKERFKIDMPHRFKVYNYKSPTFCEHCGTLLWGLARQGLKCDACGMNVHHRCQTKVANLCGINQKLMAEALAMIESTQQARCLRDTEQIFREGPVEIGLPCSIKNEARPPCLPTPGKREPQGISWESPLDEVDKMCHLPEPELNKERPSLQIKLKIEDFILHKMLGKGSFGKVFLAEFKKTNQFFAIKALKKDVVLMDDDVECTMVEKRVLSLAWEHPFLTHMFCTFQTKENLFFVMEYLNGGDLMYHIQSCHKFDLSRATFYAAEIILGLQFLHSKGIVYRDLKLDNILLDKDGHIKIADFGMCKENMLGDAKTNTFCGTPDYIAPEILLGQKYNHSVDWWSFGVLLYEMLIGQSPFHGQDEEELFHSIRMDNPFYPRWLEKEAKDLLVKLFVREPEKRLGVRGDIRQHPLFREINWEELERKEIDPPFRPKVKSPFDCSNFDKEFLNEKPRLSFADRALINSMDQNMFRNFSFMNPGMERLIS

CC(C)CCN[C@@H]1CCc2cc(O)c(N3CC(=O)NS3(=O)=O)c(F)c2C1 [AC484, ABBV-CLS-484]
> 10 µM: all assays above
